Assay results reported in PubChem BioAssay (NCI).
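96-well plates; 48 h exposure; 5 concentrations. Endpoints by linear interpolation between flanking doses. Not reached: highest tested concentration assigned. At the TGI there is no net growth.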

Key:
Test in all cases: NCI tumour cell line growth inhibition, 48 h
P388 leukemia = tested on: P388 leukemia
SN12K1 renal = tested on: SN12K1 renal
A498 renal = tested on: A498 renal
MDA-N = tested on: MDA-N
DU-145 prostate = tested on: DU-145 prostate
BT-549 breast = tested on: BT-549 breast
PC-3 prostate = tested on: PC-3 prostate
HS 578T breast = tested on: HS 578T breast
T-47D breast = tested on: T-47D breast
MDA-MB-435 = tested on: MDA-MB-435

Structure (SMILES) | TGI (P388 leukemia) [µM] | TGI (SN12K1 renal) [µM] | TGI (A498 renal) [µM] | TGI (MDA-N) [µM] | TGI (DU-145 prostate) [µM] | TGI (BT-549 breast) [µM] | TGI (PC-3 prostate) [µM] | TGI (HS 578T breast) [µM] | TGI (T-47D breast) [µM] | TGI (MDA-MB-435) [µM]
Nc1c(S(=O)(=O)O)cc2cc(S(=O)(=O)O)ccc2c1N=Nc1ccc(-c2ccc(N=Nc3c(N)c(S(=O)(=O)O)cc4cc(S(=O)(=O)O)ccc34)c(S(=O)(=O)O)c2)cc1 | > 100 | > 100 | > 100 | – | – | – | – | – | – | –
COc1ccc(C(=C2C=CC=C2)c2ccc(OC)cc2)cc1 | – | – | – | > 100 | > 100 | > 100 | > 100 | 94.4 | 57.7 | > 100
Oc1ccc(-c2nc3ccc(Br)cc3s2)cc1 | – | – | – | > 100 | 36.7 | 44.7 | 54.8 | – | – | 53.4
CCCCCCCC/C=C\CCCCCCCCCCCC(=O)O | 51.6 | 52.4 | – | – | – | – | – | – | – | –
